Measurements from ChEMBL document CHEMBL3301451, “MMV Malaria Box gametocyte functional viability assay screening”.
Each block holds one compound with its values, some of them ahead of it.

Assays:
Plasmodium berghei [1] = assay: (§1) MMV: P. berghei-infected blood was withdrawn from mice by cardiac pucture before being immediately added to ookinete culture medium containing test compounds. 26 hr later, GFP-positive ookinetes were identified and counted by automated microscopy. All compounds were tested in 4 independent experiments and data presented here is the mean.; type: functional; design: concentration or dose not given beside the values
Plasmodium berghei [2] = assay: as §1, with “mean. IC50s determined for selected compounds.” for “mean.”; type: functional, organism-based
Plasmodium falciparum [3] = assay: (§2) MMV: P. falciparum NF54 functionally mature Stage V gametocytes were incubated for 24 hr in the presence of the test compounds. Gamete formation was then triggered by addition of 2uM xantheurenic acid and temperature decrease to ~20C. Male gamete exflagellation was recorded and analysed by automated microscopy after 20 min. All compounds were tested in 4 independent experiments and data presented here is the mean.; type: functional; design: concentration or dose not given beside the values
Plasmodium falciparum [4] = assay: as §2, with “Female” for “Male”, “formation” for “exflagellation”, “24 hr later” for “and analysed”, “detection of surface labelling of female gametes with a Cy3-conjugated antibody reactive to Pfs25.” for “after 20 min.”; type: functional; design: concentration or dose not given beside the values; conditions: NF54, 24 h
Plasmodium falciparum [5] = assay: as §2, with “mean. IC50s determined for selected compounds.” for “mean.”; type: functional, organism-based
Plasmodium falciparum [6] = assay: as §2, with “Female” for “Male”, “formation” for “exflagellation”, “24 hr later” for “and analysed”, “detection of surface labelling of female gametes with a Cy3-conjugated antibody reactive to Pfs25.” for “after 20 min.”, “mean. IC50s determined for selected compounds.” for “mean.”; type: functional, organism-based; conditions: NF54, 24 h

SMILES: OC1=C2C(=Nc3ccccc3SC2c2ccc(Br)cc2)c2ccccc21 (stereo unspecified)
inhibition (Plasmodium berghei [1]): 56.77% | IC50 (Plasmodium berghei [2]): 2.27 µM | inhibition (Plasmodium falciparum [3]): 62.9% | inhibition (Plasmodium falciparum [4]): 8.27% | IC50 (Plasmodium falciparum [5]): 3.41 µM | IC50 (Plasmodium falciparum [6]): > 50 µM

SMILES: CCn1c(CN2CCN(Cc3ccccc3)CC2)nc2cc(NC(=O)c3cccs3)ccc21
inhibition (Plasmodium berghei [1]): 78.13% | IC50 (Plasmodium berghei [2]): 0.487 µM | inhibition (Plasmodium falciparum [3]): 67.4% | inhibition (Plasmodium falciparum [4]): -15.4% | IC50 (Plasmodium falciparum [5]): 0.288 µM | IC50 (Plasmodium falciparum [6]): > 50 µM

SMILES: O=C1c2ccccc2C2=Nc3ccccc3SC(c3cccc(F)c3)C12 (stereo unspecified)
inhibition (Plasmodium berghei [1]): 71.31% | IC50 (Plasmodium berghei [2]): 1.06 µM | inhibition (Plasmodium falciparum [3]): 70.7% | inhibition (Plasmodium falciparum [4]): 11% | IC50 (Plasmodium falciparum [5]): 2.14 µM | IC50 (Plasmodium falciparum [6]): > 50 µM

SMILES: O=C(Nc1ccc(Cl)c(Cl)c1)Nc1ccc(Cl)c(Cl)c1
inhibition (Plasmodium berghei [1]): -17.89% | inhibition (Plasmodium falciparum [3]): -55.6% | inhibition (Plasmodium falciparum [4]): -21.6%

SMILES: CCOc1cc(Cl)c(C(C)NC(=O)c2ccccc2)cc1OCC (stereo unspecified)
inhibition (Plasmodium berghei [1]): -7.982% | inhibition (Plasmodium falciparum [3]): 32.8% | inhibition (Plasmodium falciparum [4]): -37%

SMILES: O=C(NC1CCCC1)c1ccc(N2CCC(NCc3cccc(C(F)(F)F)c3)CC2)cc1
inhibition (Plasmodium berghei [1]): -10.11% | inhibition (Plasmodium falciparum [3]): -12% | inhibition (Plasmodium falciparum [4]): -14%

SMILES: COc1cc(SC)ccc1C(=O)N1CCCC(C)C1 (stereo unspecified)
inhibition (Plasmodium berghei [1]): -13.09% | inhibition (Plasmodium falciparum [3]): 23.2% | inhibition (Plasmodium falciparum [4]): 6.66%

SMILES: CC(C)c1ccc(CNCC(O)c2ccccc2)cc1.Cl (stereo unspecified)
inhibition (Plasmodium berghei [1]): -4.617% | inhibition (Plasmodium falciparum [3]): 4.92% | inhibition (Plasmodium falciparum [4]): -2.85%

SMILES: Cc1sc(NC(=O)c2ccccc2)c(C(c2cccs2)N2CCN(c3ccccc3)CC2)c1C (stereo unspecified)
inhibition (Plasmodium berghei [1]): -17.69% | inhibition (Plasmodium falciparum [3]): 8.21% | inhibition (Plasmodium falciparum [4]): -14.4%

SMILES: CCCCCCc1cc2cc(-c3csc(C=Cc4ccccc4)n3)c(=O)oc2cc1O
inhibition (Plasmodium berghei [1]): -12.07% | inhibition (Plasmodium falciparum [3]): -65.7% | inhibition (Plasmodium falciparum [4]): -35.1%

SMILES: CCOc1c(Br)cc(C2C(C(=O)OC)=CN(C)C=C2C(=O)OC)cc1OC
inhibition (Plasmodium berghei [1]): -9.574% | inhibition (Plasmodium falciparum [3]): 8.8% | inhibition (Plasmodium falciparum [4]): 4.74%

More lines, main results first:

IC50 (Plasmodium berghei [2]): 3.49 µM | IC50 (Plasmodium falciparum [5]): 0.183 µM | IC50 (Plasmodium falciparum [6]): 0.473 µM
SMILES: COc1ccc(C2c3ccc4ccccc4c3Oc3ncn(CCCN(C)C)c(=N)c32)cc1 (stereo unspecified)
inhibition (Plasmodium berghei [1]): -7.365% | inhibition (Plasmodium falciparum [3]): 83.6% | inhibition (Plasmodium falciparum [4]): 27.3%

IC50 (Plasmodium berghei [2]): 12.8 µM | IC50 (Plasmodium falciparum [5]): 3.24 µM | IC50 (Plasmodium falciparum [6]): > 50 µM
SMILES: OC1=C2C(=Nc3ccccc3SC2c2ccccc2)c2ccccc21 (stereo unspecified)
inhibition (Plasmodium berghei [1]): 97.46% | inhibition (Plasmodium falciparum [3]): 58.8% | inhibition (Plasmodium falciparum [4]): -16.4%

IC50 (Plasmodium berghei [2]): 5.76 µM | IC50 (Plasmodium falciparum [5]): 3.71 µM | IC50 (Plasmodium falciparum [6]): > 50 µM
SMILES: COc1ccc(-c2cc3c(nn2)-c2ccccc2C3=O)cc1
inhibition (Plasmodium berghei [1]): 2.461% | inhibition (Plasmodium falciparum [3]): 71.3% | inhibition (Plasmodium falciparum [4]): -5.89%

IC50 (Plasmodium berghei [2]): 0.208 µM | IC50 (Plasmodium falciparum [5]): 0.237 µM | IC50 (Plasmodium falciparum [6]): > 50 µM
SMILES: CCOC(=O)c1ccc2nc(-c3ccccc3)cc(O)c2c1
inhibition (Plasmodium berghei [1]): 27.95% | inhibition (Plasmodium falciparum [3]): 63.6% | inhibition (Plasmodium falciparum [4]): 2.21%

IC50 (Plasmodium falciparum [5]): 0.045 µM | IC50 (Plasmodium falciparum [6]): > 50 µM
SMILES: CCOC(=O)c1cn(CC)c2cc(N(C)CCc3ccc(OC)c(OC)c3)c(F)cc2c1=O
inhibition (Plasmodium berghei [1]): 20.52% | inhibition (Plasmodium falciparum [3]): 71.2% | inhibition (Plasmodium falciparum [4]): -15%

IC50 (Plasmodium berghei [2]): 7.82 µM | IC50 (Plasmodium falciparum [5]): 0.0255 µM | IC50 (Plasmodium falciparum [6]): 0.159 µM
SMILES: Cl.Clc1cc(Br)ccc1-c1ccc(CNCC2CCNCC2)o1
inhibition (Plasmodium berghei [1]): -9.542% | inhibition (Plasmodium falciparum [3]): 74.1% | inhibition (Plasmodium falciparum [4]): 38.1%

IC50 (Plasmodium berghei [2]): 0.0962 µM | IC50 (Plasmodium falciparum [5]): 0.481 µM | IC50 (Plasmodium falciparum [6]): > 50 µM
SMILES: COc1ccc(C=C2SC(=N)N(c3ccccc3OC)C2=O)cc1
inhibition (Plasmodium berghei [1]): 72.74% | inhibition (Plasmodium falciparum [3]): 77.3% | inhibition (Plasmodium falciparum [4]): -7.34%

IC50 (Plasmodium berghei [2]): 2.19 µM | IC50 (Plasmodium falciparum [5]): 0.365 µM | IC50 (Plasmodium falciparum [6]): > 50 µM
SMILES: CCOC(=O)c1cn(CC)c2cc(N3CCCCC3)c(F)cc2c1=O
inhibition (Plasmodium berghei [1]): 41.89% | inhibition (Plasmodium falciparum [3]): 92.4% | inhibition (Plasmodium falciparum [4]): -15.2%

IC50 (Plasmodium berghei [2]): 0.292 µM | IC50 (Plasmodium falciparum [5]): 0.13 µM | IC50 (Plasmodium falciparum [6]): 1.07 µM
SMILES: CN(C)CCCNc1c2ccccc2nc2ccccc12
inhibition (Plasmodium berghei [1]): 96.2% | inhibition (Plasmodium falciparum [3]): 97.5% | inhibition (Plasmodium falciparum [4]): 24.6%

IC50 (Plasmodium berghei [2]): 0.991 µM | IC50 (Plasmodium falciparum [5]): 0.977 µM | IC50 (Plasmodium falciparum [6]): 0.446 µM
SMILES: CN(C)c1ccc(C(O)(c2ccc(N(C)C)cc2)c2ccc(N(C)C)cc2)cc1 [METHYLROSANILINE]
inhibition (Plasmodium berghei [1]): 62.53% | inhibition (Plasmodium falciparum [3]): 19.7% | inhibition (Plasmodium falciparum [4]): 44.6%

IC50 (Plasmodium berghei [2]): 4.25 µM | IC50 (Plasmodium falciparum [5]): 0.096 µM | IC50 (Plasmodium falciparum [6]): > 50 µM
SMILES: COc1ccccc1NC1=C(N2CCCCC2)C(=O)c2ccccc2C1=O
inhibition (Plasmodium berghei [1]): -14.08% | inhibition (Plasmodium falciparum [3]): 96.8% | inhibition (Plasmodium falciparum [4]): -15.9%

IC50 (Plasmodium falciparum [5]): 2.9 µM | IC50 (Plasmodium falciparum [6]): 6.45 µM
SMILES: COc1ccc2c(c1)C1(Nc3ccccc3-c3nc4ccccc4n31)C(=O)N2 (stereo unspecified)
inhibition (Plasmodium berghei [1]): 54.64% | inhibition (Plasmodium falciparum [3]): 48.2% | inhibition (Plasmodium falciparum [4]): 24%

IC50 (Plasmodium berghei [2]): 0.287 µM | IC50 (Plasmodium falciparum [5]): 0.57 µM | IC50 (Plasmodium falciparum [6]): > 50 µM
SMILES: CCOC(=O)c1cnc2ccc(CC)cc2c1O
inhibition (Plasmodium berghei [1]): 97.88% | inhibition (Plasmodium falciparum [3]): 65.8% | inhibition (Plasmodium falciparum [4]): 9.93%

IC50 (Plasmodium berghei [2]): 6.5 µM | IC50 (Plasmodium falciparum [5]): 0.139 µM | IC50 (Plasmodium falciparum [6]): 0.189 µM
SMILES: CC1CC2=C(CC1CNCCCN(C)C)C(C)(C)CCC2 (stereo unspecified)
inhibition (Plasmodium berghei [1]): -10.78% | inhibition (Plasmodium falciparum [3]): 62.3% | inhibition (Plasmodium falciparum [4]): 56.1%

IC50 (Plasmodium berghei [2]): 0.464 µM | IC50 (Plasmodium falciparum [5]): 0.241 µM | IC50 (Plasmodium falciparum [6]): 0.384 µM
SMILES: COc1cccc(NC(=O)[C@H](C(C)C)n2c(=O)[nH]c3ccccc3c2=O)c1
inhibition (Plasmodium berghei [1]): 58.53% | inhibition (Plasmodium falciparum [3]): 70.9% | inhibition (Plasmodium falciparum [4]): 36.6%

IC50 (Plasmodium berghei [2]): 16.4 µM | IC50 (Plasmodium falciparum [5]): 0.384 µM | IC50 (Plasmodium falciparum [6]): 0.614 µM
SMILES: OC1CCCCC1C1(NC(=S)Nc2ccccc2)CCCCC1 (stereo unspecified)
inhibition (Plasmodium berghei [1]): 14.01% | inhibition (Plasmodium falciparum [3]): 80.7% | inhibition (Plasmodium falciparum [4]): 73.8%
